From patent US20250188077A1, “CRYSTAL FORM OF 1H-PYRROLO[2,3-C]PYRIDINE COMPOUND AND PREPARATION METHOD THEREFOR” (JUMBO DRUG BANK CO., LTD., priority 2022, published 2025)
Like-named read-outs stand apart in the source and are kept apart here.

How the values were obtained:
[1] = Solid stability test (XRPD crystal form after storage); format: physicochemical; conditions: 40° C./75% RH(open)
[2] = as above; format: physicochemical
Source text: The samples placed at high temperature and humidity were sampled for XRPD testing on the 10th and 30th day; The samples exposed to light were put into a clean surface dish, laid into a thin layer, covered with a quartz glass cover, and sampled for XRPD testing on the 5th and 10th days; For the long-term test and accelerated test (shading), each sample were put into a double-layer LDPE bag, each layer of LDPE bag was respectively buckled and sealed, and then the LDPE bag was put into an aluminum foil bag with a package of desiccant and heat sealed. The samples were respectively placed at 25° C./60% RH, 30° C./65% RH and 40° C./75% RH for exploration, the test results were compared with the initial test results of 0 day and the test results were shown in Table 7 below.

[3] = Hygroscopicity study by dynamic vapor sorption (DVS); format: physicochemical; conditions: 80% RH/25° C.
Procedure: Instrument model: SMS DVS Intrinsic dynamic vapor sorption instrument
Test conditions: The sample (10 mg) was taken and placed in a DVS sample plate for testing.
Detailed DVS parameters were as follows:
Drying: 25° C., 0% RH drying for 2 hours
Range of Rh (%) test step: 0%-95%-0% RH
SMS DVS intrinsic dynamic vapor adsorption instrument
A sample (10 mg) was taken and placed in a DVS sample plate for testing.

[4] = tested on: BCR-FMS-BaF3 cells; assay: CellTiter-Glo luminescent cell viability / cell proliferation assay; format: cell-based; conditions: for IC50: 72 h, BCR-FMS-BaF3, 3 days incubation
Source text: Luminescent Cell Viability Assay (CellTiter-Glo® methold) from Promega was used for cell proliferation detection. CellTiter-Glo® Luminescent Cell Viability Assay (CellTiter-Glo® luminescent cell viability detection kit) was a homogeneous rapid detection method for detecting the viability of living cells in culture by quantitative determination of ATP. ATP was an indicator of the metabolism of living cells. Cell lysis and the resulting light signal were proportional to the amount of present ATP, and the amount of ATP is directly proportional to the number of living cells in the culture. The higher the fluorescence reading indicated the higher ATP content in the cell and also the higher the cell viability. Therefore, the inhibition degree of compound on cell proliferation can be monitored by fluorescence value. 1) The compound was diluted 2 mM with 100% DMSO, that is, 5 μL of 10 mM compound storage solution was taken and put into the first column of 96-well compound plate, then 20 μL of 100% DMSO were added and mixed well; 2) 20 μL of 100% DMSO was added to the second column to the tenth column of 96-well compound plate; 3) 5 μL of compound was taken from the first column to the second column and mixed well, and then 5 μL of compound was taken from the second column to the third column and mixed well. The above steps were repeated to the ninth column to complete the gradient dilution of the compound; 4) Preparation of compound working solution: 2 μL of compound per well from the second column of the compound plate was taken to a new 96 well compound plate, and 78 μL of cell culture medium per well was added; 2 μL of 100% DMSO from the negative control well was taken and 78 μL of cell culture medium was added; and 5) The compound concentration was the final concentration, in which the blank control well was the culture medium well without cells, and the negative control was 0.5% DMSO. 1) The BCR-FMS-BaF3 cell suspension was collected and centrifuged at 1000 rpm (revolutions per minute) for 5 minutes. The supernatant was removed, cells were resuspended with preheated medium and counted. After counting, the cell suspension was diluted with cell culture medium to the required density. Each well was inoculated with 80 μL cell suspension into 96 well cell culture plate. 2) On the day of the experiment, 20 μL of compound working solution was added to the cell plate and incubated for 3 days at 37° C. in a 5% CO2 incubator. [table] 3) After the incubation is completed, 20 μL of CTG detection reagent was added to each well of the cell plate, and incubated at 25° C. for 10 minutes. After the incubation is completed, EnVision was used for luminescence signal detection. […]

CNC(=O)c1nccc2c(-c3cnc(Nc4ccc(OC5CC5)nc4)cc3C)c[nH]c12.Cl
Crystal form (XRPD) ([1]; 1 M): crystal form B | Crystal form (XRPD) ([1]; 3 M): crystal form B | Crystal form (XRPD) ([1]; 6 M): crystal form B | Crystal form (XRPD) ([2]; 0 days (initial)): crystal form B | Crystal form (XRPD) ([2]; 25° C./60% RH, 3 M): crystal form B | Crystal form (XRPD) ([2]; 25° C./60% RH, 6 M): crystal form B | Crystal form (XRPD) ([2]; 25° C./60% RH, 24 M): crystal form B | Crystal form (XRPD) ([2]; 30° C./65% RH, 1 M): crystal form B | Crystal form (XRPD) ([2]; 30° C./65% RH, 3 M): crystal form B | Crystal form (XRPD) ([2]; 30° C./65% RH, 6 M): crystal form B | Crystal form (XRPD) ([2]; high humidity (25° C./relative humidity 92.5%, open), 10 days): crystal form B | Crystal form (XRPD) ([2]; high humidity (25° C./relative humidity 92.5%, open), 30 days): crystal form B | Crystal form (XRPD) ([2]; high temperature (60° C., open), 10 days): crystal form B | Crystal form (XRPD) ([2]; high temperature (60° C., open), 30 days): crystal form B | Solid stability (conclusion) ([2]; influencing factors, light, acceleration and long-term experimental conditions): good stability | Crystal form (XRPD) ([2]; strong light (5000 lx and UV intensity 90 w/cm^2, open), 5 days): crystal form B | Crystal form (XRPD) ([2]; strong light (5000 lx and UV intensity 90 w/cm^2, open), 10 days): crystal form B | Classification of hygroscopicity [3]: slight hygroscopicity | ΔW (hygroscopic weight gain) ([3]; DVS): 0.28% | IC50 ([4]; mean of N = 1 and N = 2, read-out: IC50 (nM) Mean value ± SD): 2.46 ± 0.008 nM | IC50 ([4]; replicate N = 1, read-out: IC50 (nM) N = 1): 2.46 nM | IC50 ([4]; replicate N = 2, read-out: IC50 (nM) N = 2): 2.47 nM | Inhibition of proliferation of BCR-FMS-BaF3 cells (conclusion in words) ([4]; BCR-FMS-BaF3 cells): significantly inhibit the proliferation
